Data as given in patent US20240148821A1, “PHARMACEUTICAL USE OF CYCLIC PEPTIDE COMPOUND” (CHUGAI SEIYAKU KABUSHIKI KAISHA, priority 2021, published 2024).
pIC50: −log10 of the molar value. Bridge positions count the residues as written; N and C are the ends. Square brackets hold non-standard residues; d marks the D form. Peptide text beside a SMILES is read from it. * marks the point of attachment. hPhe(3-Cl-4-CF3) = N[C@@H](CCc1ccc(C(F)(F)F)c(Cl)c1)C(=O)O; hPhe(3-F,4-CF3) = N[C@@H](CCc1ccc(C(F)(F)F)c(F)c1)C(=O)O; NMePhe(4-Me) = CN[C@@H](Cc1ccc(C)cc1)C(=O)O; NMePhe(3-F) = CN[C@@H](Cc1cccc(F)c1)C(=O)O; NMeMet(O2) = CN[C@@H](CCS(C)(=O)=O)C(=O)O; Phe(3-I) = N[C@@H](Cc1cccc(I)c1)C(=O)O; NMeCha = CN[C@@H](CC1CCCCC1)C(=O)O; NMeCba = CN[C@@H](CC1CCC1)C(=O)O; NMeChg = CN[C@H](C(=O)O)C1CCCCC1; N(CH2CH2)2CF2 = FC1(F)CCN(*)CC1; NMeD = CN[C@@H](CC(=O)O)C(=O)O; NMeL = CN[C@@H](CC(C)C)C(=O)O; NMeV = CN[C@H](C(=O)O)C(C)C; Trifluoroethyl = FC(F)(F)C*; d(β3hA) = C[C@@H](N)CC(=O)O; NMeS = CN[C@@H](CO)C(=O)O; Pip = O=C(O)[C@@H]1CCCCN1; Ac6c = NC1(C(=O)O)CCCCC1; NMeA = CN[C@@H](C)C(=O)O; Nle = CCCC[C@H](N)C(=O)O; Piperidide = C1CCN(*)CC1; Ac5c = NC1(C(=O)O)CCCC1; Aze = O=C(O)[C@@H]1CCN1; Cyclobutyl = C1CC(*)C1; NEtG = CCNCC(=O)O; βAla = NCCC(=O)O; Sar = CNCC(=O)O

Each compound was assayed on Human pancreatic cancer cell line AsPC-1 (G12D mutation Kras) (assay: AsPC-1 cell growth inhibition (AsPC-1 CGI)). Conditions: read-out: AsPC-1 cell growth inhibition, 50% growth inhibitory concentration (IC50 value); 96 hours, CellTiter-Glo, values classified in ranges.
Format: cell-based
Method: Test compounds were serially dilated with dimethyl sulfoxide, and 200 nL was then dispensed to a U-bottom 96-well plate using Labcyte Echo. […] The cell suspension was dispensed to a. plate containing a test compound at 100 μL per well and incubated at 37° C. in a 5% carbon dioxide gas incubator. 96 hours later, 80 μL of CellTiter-Glo (Promega) was added to each well and fluorescence was measured.

Q: `CC[C@H](C)[C@@H]1NC(=O)[C@H](CC(C)C)N(C)C(=O)C[C@@H](C(=O)N2CCCCC2)N(C)C(=O)[C@H](COCC(F)(F)F)N(C)C(=O)C2(CCCC2)NC(=O)[C@@H]2CCCN2C(=O)[C@H](CCc2ccc(C(F)(F)F)c(Cl)c2)NC(=O)CN(C)C(=O)[C@H](CC2CCCCC2)N(C)C(=O)CN(C)C(=O)CN(C)C1=O` [Compound 208] ([NMeL]I[Sar][Sar][NMeCha][Sar][hPhe(3-Cl-4-CF3)]P[Ac5c][NMeS](Trifluoroethyl)[NMeD]-Piperidide; lactam N-11) was tested. Which pIC50 did it give?
A: < 6.30

Q: `CC[C@H](C)[C@@H]1NC(=O)[C@H](CC(C)C)N(C)C(=O)C[C@@H](C)NC(=O)[C@H](C(C)C)N(C)C(=O)C2(CCCC2)NC(=O)[C@@H]2CCCN2C(=O)[C@H](CCc2ccc(C(F)(F)F)c(Cl)c2)NC(=O)CN(C)C(=O)[C@H](CC2CCCCC2)N(C)C(=O)CN(C)C(=O)CN(CC)C1=O` [Compound 210] (cyclo([Ac5c][NMeV][d(β3hA)][NMeL]I[NEtG][Sar][NMeCha][Sar][hPhe(3-Cl-4-CF3)]P)) was tested. Which pIC50 did it give?
A: < 6.30

Q: With `CC[C@H](C)[C@@H]1NC(=O)[C@@H]2CCCCN2C(=O)C[C@@H](C)NC(=O)[C@H](CC(C)C)N(C)C(=O)C2(CCCC2)NC(=O)[C@H](CC(C)C)N(C)C(=O)[C@H](CCc2ccc(C(F)(F)F)c(Cl)c2)NC(=O)CN(C)C(=O)[C@H](CC2CCCCC2)N(C)C(=O)CN(C)C(=O)CN(C)C1=O` [Compound 213] (cyclo([Ac5c][NMeL][d(β3hA)][Pip]I[Sar][Sar][NMeCha][Sar][hPhe(3-Cl-4-CF3)][NMeL])) as the compound, how does the pIC50 read?
A: < 6.30

Q: How did the pIC50 turn out when `CC[C@H](C)[C@@H]1NC(=O)[C@H](CC(C)C)N(C)C(=O)C[C@@H](C(=O)N(C)C)N(C)C(=O)[C@H](C(C)C)N(C)C(=O)C2(CCCC2)NC(=O)[C@H](CC(=O)N2CCC(F)(F)CC2)N(C)C(=O)[C@H](CCc2ccc(C(F)(F)F)c(Cl)c2)NC(=O)CN(C)C(=O)[C@H](CC2CCCCC2)N(C)C(=O)CN(C)C(=O)CN(C)C1=O` [Compound 218] ([NMeL]I[Sar][Sar][NMeCha][Sar][hPhe(3-Cl-4-CF3)][NMeD](N(CH2CH2)2CF2)[Ac5c][NMeV][NMeD]-NMe2; lactam N-11) was run?
A: < 6.30

Q: How did the pIC50 turn out when `CC(C)C[C@H]1C(=O)N[C@@H](COC2CCC2)C(=O)N(C)CC(=O)N(C)CC(=O)N(C)[C@@H](CC2CCCCC2)C(=O)N(C)CC(=O)N[C@@H](CCc2ccc(C(F)(F)F)c(Cl)c2)C(=O)N2CCC[C@H]2C(=O)NC2(CCCC2)C(=O)N(C)[C@@H](C2CCCCC2)C(=O)N(C)[C@H](C(=O)N2CCCCC2)CC(=O)N1C` [Compound 226] ([NMeL]S(Cyclobutyl)[Sar][Sar][NMeCha][Sar][hPhe(3-Cl-4-CF3)]P[Ac5c][NMeChg][NMeD]-Piperidide; lactam N-11) was run?
A: < 6.30

Q: With `CC[C@H](C)[C@@H]1NC(=O)[C@H](CC2CCC2)N(C)C(=O)C[C@@H](C)NC(=O)[C@H](C(C)C)N(C)C(=O)C2(CCCC2)NC(=O)[C@@H]2CCCN2C(=O)[C@H](CCc2ccc(C(F)(F)F)c(Cl)c2)NC(=O)CN(C)C(=O)[C@H](CC2CCCCC2)N(C)C(=O)CN(C)C(=O)CN(C)C1=O` [Compound 230] (cyclo([Ac5c][NMeV][d(β3hA)][NMeCba]I[Sar][Sar][NMeCha][Sar][hPhe(3-Cl-4-CF3)]P)) as the compound, how does the pIC50 read?
A: < 6.30

Q: How did the pIC50 turn out when `CC[C@H](C)[C@@H]1NC(=O)[C@H](CC(C)C)N(C)C(=O)C[C@@H](C)NC(=O)[C@H](CC(C)C)N(C)C(=O)C2(CCCCC2)NC(=O)[C@@H]2CCCN2C(=O)[C@H](CCc2ccc(C(F)(F)F)c(F)c2)NC(=O)CN(C)C(=O)[C@H](CC2CCCCC2)N(C)C(=O)CN(C)C(=O)CN(C)C1=O` [Compound 231] (cyclo([Ac6c][NMeL][d(β3hA)][NMeL]I[Sar][Sar][NMeCha][Sar][hPhe(3-F,4-CF3)]P)) was run?
A: < 6.30

Q: With `CCCC[C@@H]1NC(=O)[C@H](Cc2cccc(I)c2)NC(=O)CN(C)C(=O)[C@H](Cc2ccc(C)cc2)N(C)C(=O)CN(C)C(=O)CN(C)C(=O)[C@H]([C@@H](C)CC)NC(=O)[C@H](CC(C)C)N(C)C(=O)C[C@@H](C(=O)N2CCCCC2)N(C)C(=O)[C@H](CC(C)C)NC(=O)[C@H](C)N(C)C1=O` [Compound 232] ([NMeL]I[Sar][Sar][NMePhe(4-Me)][Sar][Phe(3-I)][Nle][NMeA]L[NMeD]-Piperidide; lactam N-11) as the compound, how does the pIC50 read?
A: < 6.30

Q: With `CC[C@H](C)[C@@H]1NC(=O)[C@H](CC(C)C)N(C)C(=O)C[C@@H](C(=O)N2CCCCC2)N(C)C(=O)[C@H](C(C)C)N(C)C(=O)C2(CCCC2)NC(=O)[C@@H]2CCCN2C(=O)[C@H](CCc2ccc(C(F)(F)F)c(Cl)c2)NC(=O)CN(C)C(=O)[C@H](CCS(C)(=O)=O)N(C)C(=O)[C@@H]2CCN2C(=O)[C@H](C)N(C)C1=O` [Compound 235] ([NMeL]I[NMeA][Aze][NMeMet(O2)][Sar][hPhe(3-Cl-4-CF3)]P[Ac5c][NMeV][NMeD]-Piperidide; lactam N-11) as the compound, how does the pIC50 read?
A: < 6.30

Q: How did the pIC50 turn out when `CC[C@H](C)[C@@H]1NC(=O)CCNC(=O)[C@H](Cc2cccc(F)c2)N(C)C(=O)[C@H](C2CCCCC2)N(C)C(=O)C2(CCCC2)NC(=O)[C@@H]2CCCN2C(=O)[C@H](CCc2ccc(C(F)(F)F)c(Cl)c2)NC(=O)CN(C)C(=O)[C@H](CC2CCCCC2)N(C)C(=O)CN(C)C(=O)CN(C)C1=O` [Compound 237] (cyclo([Ac5c][NMeChg][NMePhe(3-F)][βAla]I[Sar][Sar][NMeCha][Sar][hPhe(3-Cl-4-CF3)]P)) was run?
A: < 6.30
